Assay results from patent US9669034B2, “4-aryl-N-phenyl-1,3,5-triazin-2-amines containing a sulfoximine group” (BAYER INTELLECTUAL PROPERTY GMBH, priority 2011, dated 2017).
In brackets after ≈: the same amount, converted by molar mass. Read-outs that look alike come from different tables or passages of the source.

Legend:
[1] = tested on: B16F10 mouse melanoma cells; assay: Proliferation assay (crystal violet), B16F10; assay type: cell-based; settings: Mus musculus, B16-F10, B16F10 cells, Method 3; read-out: Inhibition of B16F10 cell proliferation, IC50
Summary of the method: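 B16F10 mouse melanoma cells (ATCC CRL-6475) were seeded at 1000 cells/well into 96-well plates in 200 μL growth medium containing 10% fetal calf serum. After 24 hours, one zero-point plate was stained with crystal violet. The remaining plates got fresh medium with test substances (0 M and […], 0.5% dimethylsulfoxide) and were incubated for 4 days.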

CDK2/CycE = CDK2/CycE (Homo sapiens (Human), UniProt P24941); assay: CDK2/CycE kinase assay (TR-FRET); assay type: biochemical; settings: Method 2
Summary of the method: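 Enzyme was GST-tagged human CDK2 with GST-tagged human CycE, expressed in Sf9 insect cells and glutathione-affinity purified. The kinase reaction used a biotinylated peptide substrate, with inhibition measured by TR-FRET.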

[2] = tested on: DU145, hormone-independent human prostate carcinoma cells; assay: Proliferation assay (crystal violet), DU145; assay type: cell-based; settings: Homo sapiens, DU-145, DU145 cells, Method 3; read-out: Inhibition of DU145 cell proliferation, IC50
Summary of the method: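 DU145 hormone-independent human prostate carcinoma cells (ATCC HTB-81) were seeded at 5000 cells/well in 96-well plates in 200 μL growth medium with 10% fetal calf serum. After 24 hours, a zero-point plate was stained. The other plates got fresh medium containing test substances ([…], 0.5% dimethylsulfoxide) and were incubated for 4 days.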

[3] = tested on: Caco-2 human colorectal carcinoma; assay: Proliferation assay (crystal violet), Caco-2; assay type: cell-based; settings: Homo sapiens, Caco-2, Caco-2 cells, Method 3; read-out: Inhibition of Caco-2 cell proliferation, IC50
Summary of the method: (§1)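 Cells were seeded at 3000/well (NCI-H460, HeLa), 5000/well (HeLa-MaTu-ADR) or 1500/well (Caco-2) in medium with 10% FCS. After 24 h, compounds ([…], 0.5% DMSO) were added for 4 days. Crystal violet absorbance at 595 nm was normalized to a zero-point plate and untreated cells; IC50 came from a 4-parameter fit.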

[4] = tested on: NCI-H460, human non-small cell lung carcinoma cells; assay: Proliferation assay (crystal violet), NCI-H460; assay type: cell-based; settings: Homo sapiens, NCI-H460, NCI-H460 cells, Method 3; read-out: Inhibition of NCI-H460 cell proliferation, IC50
Summary of the method: as §1

[5] = tested on: HeLa human cervical tumour cells; assay: Proliferation assay (crystal violet), HeLa; assay type: cell-based; settings: Method 3, read-out: Inhibition of HeLa cell proliferation, IC50
Summary of the method: as §1

CDK9/CycT1 = CDK9/CycT1 (Homo sapiens (Human), UniProt P50750); assay: CDK9/CycT1 kinase assay (TR-FRET); assay type: biochemical; settings: Method 1
Summary of the method: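 Recombinant full-length His-tagged human CDK9/CycT1, insect-cell expressed and Ni-NTA purified. Substrate is a biotinylated peptide (biotin-Ttds-linked). Kinase inhibition is read out by TR-FRET.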

[6] = tested on: HeLa-MaTu-ADR, multidrug-resistant human cervical carcinoma cells; assay: Proliferation assay (crystal violet), HeLa-MaTu-ADR; assay type: cell-based; settings: Homo sapiens, HeLa, Method 3, read-out: Inhibition of HeLa/MaTu/ADR cell proliferation, IC50
Summary of the method: as §1

[7] = Equilibrium shake flask solubility assay; assay type: physicochemical; settings: pH 6.5, equilibrium shake flask method; for solubility thermodynamic at 24 h: phosphate buffer, pH 6.5, aqueous buffer, thermodynamic from solid, water
Protocol: 4. Equilibrium Shake Flask Solubility Assay:
The thermodynamic solubility of compounds in water was determined by an equilibrium shake flask method (see for example: E. H. Kerns, L. Di: Drug-like Properties: Concepts, Structure Design and Methods, 276-286, Burlington, Mass., Academic Press, 2008). A saturated solution of the drug was prepared and the solution was mixed for 24 h to ensure that equilibrium was reached. The solution was centrifuged to remove the insoluble fraction and the concentration of the compound in solution was determined using a standard calibration curve.
To prepare the sample, 2 mg solid compound was weighed in a 4 mL glass vial. 1 mL phosphate buffer pH 6.5 was added. The suspension was stirred for 24 hrs at room temperature. The solution was centrifuged afterwards. To prepare the sample for the standard calibration, 2 mg solid sample was dissolved in 30 mL acetonitrile. After sonification the solution was diluted with water to 50 mL. Sample and standards were quantified by HPLC with UV-detection. For each sample two injection volumes (5 and 50 μl) in triplicates were made. Three injection volumes (5 μl, 10 μl and 20 μl) were made for the standard.
Chromatographic Conditions:
The areas of sample- and standard injections as well as the calculation of the solubility value (in mg/l) were determined by using HPLC software (Waters Empower 2 FR).

[8] = biological target: human carbonic anhydrase-1 (Homo sapiens (Human), UniProt P00915); assay: Carbonic anhydrase assay, carbonic anhydrase-1; assay type: biochemical; settings: read-out: Inhibition of Carbonic anhydrase-1: IC50
Description: (§2) 5. Carbonic Anhydrase Assay
(§3) The principle of the assay is based on the hydrolysis of 4-nitrophenyl acetate by carbonic anhydrases (Pocker & Stone, Biochemistry, 1967, 6, 668), with subsequent photometric determination of the dye product 4-nitrophenolate at 400 nm by means of a 96-channel spectral photometer.
(§4) 2 microL of the test compounds, dissolved in DMSO (100-fold final concentration), in a concentration range of 0.03-10 micromol/L (final), was pipetted as quadruplicates into the wells of a 96-hole microtiter plate. Wells that contained the solvent without test compounds were used as reference values (1. Wells without carbonic anhydrase for correction of the non-enzymatic hydrolysis of the substrate, and 2. Wells with carbonic anhydrase for determining the activity of the non-inhibited enzyme).
(§5) 188 microL of assay buffer (10 millimol/L of Tris/HCl, pH 7.4, 80 millimol/L of NaCl), with or without 3 units/well of carbonic anhydrase-1 [=human carbonic anhydrase-1 (Sigma, #C4396)] in order to determine carbonic anhydrase-1 inhibition or 3 units/well of carbonic anhydrase-2 [=human carbonic anhydrase-2 (Sigma, #C6165)] for measuring carbonic anhydrase-2 inhibition, was pipetted into the wells of the microtiter plate. […] IC50 values were determined by means of a 4 parameter fit.

[9] = biological target: human carbonic anhydrase-2 (Homo sapiens (Human), UniProt P00918); assay: Carbonic anhydrase assay, carbonic anhydrase-2; assay type: biochemical; settings: read-out: Inhibition of Carbonic anhydrase-2: IC50
Description: as §2, §3, §4, §5

Sequence of CDK9/CycT1 (P50750 whole entry): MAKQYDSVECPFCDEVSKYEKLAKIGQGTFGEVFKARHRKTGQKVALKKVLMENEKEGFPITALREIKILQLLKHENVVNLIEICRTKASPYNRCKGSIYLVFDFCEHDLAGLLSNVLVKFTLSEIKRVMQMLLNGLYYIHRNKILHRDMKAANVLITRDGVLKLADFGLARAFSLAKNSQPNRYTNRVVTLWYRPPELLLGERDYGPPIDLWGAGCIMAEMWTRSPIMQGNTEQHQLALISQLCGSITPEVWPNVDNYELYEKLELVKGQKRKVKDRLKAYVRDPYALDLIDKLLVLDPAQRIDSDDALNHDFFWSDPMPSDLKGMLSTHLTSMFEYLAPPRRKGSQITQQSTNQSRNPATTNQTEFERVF
Sequence of CDK9/CycT1 (O60563 whole entry partner): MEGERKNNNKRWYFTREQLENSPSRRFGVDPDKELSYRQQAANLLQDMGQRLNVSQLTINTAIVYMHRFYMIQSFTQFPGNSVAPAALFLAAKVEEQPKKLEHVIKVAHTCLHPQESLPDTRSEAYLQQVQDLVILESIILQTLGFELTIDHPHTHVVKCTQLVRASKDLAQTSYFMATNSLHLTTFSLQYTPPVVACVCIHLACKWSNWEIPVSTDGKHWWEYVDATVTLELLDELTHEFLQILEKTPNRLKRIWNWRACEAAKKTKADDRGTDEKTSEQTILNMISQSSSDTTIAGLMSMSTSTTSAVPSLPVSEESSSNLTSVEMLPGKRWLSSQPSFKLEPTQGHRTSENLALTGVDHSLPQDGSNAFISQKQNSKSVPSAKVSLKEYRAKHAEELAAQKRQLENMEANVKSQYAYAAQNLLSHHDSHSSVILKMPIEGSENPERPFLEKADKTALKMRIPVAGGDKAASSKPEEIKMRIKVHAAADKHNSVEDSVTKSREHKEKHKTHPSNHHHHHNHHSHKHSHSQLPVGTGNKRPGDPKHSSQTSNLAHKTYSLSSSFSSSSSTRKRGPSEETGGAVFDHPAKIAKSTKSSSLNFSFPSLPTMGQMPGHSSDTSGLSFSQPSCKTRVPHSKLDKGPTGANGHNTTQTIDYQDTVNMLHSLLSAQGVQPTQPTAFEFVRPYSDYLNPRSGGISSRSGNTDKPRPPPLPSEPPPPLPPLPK
Sequence of human carbonic anhydrase-1 (P00915 whole entry): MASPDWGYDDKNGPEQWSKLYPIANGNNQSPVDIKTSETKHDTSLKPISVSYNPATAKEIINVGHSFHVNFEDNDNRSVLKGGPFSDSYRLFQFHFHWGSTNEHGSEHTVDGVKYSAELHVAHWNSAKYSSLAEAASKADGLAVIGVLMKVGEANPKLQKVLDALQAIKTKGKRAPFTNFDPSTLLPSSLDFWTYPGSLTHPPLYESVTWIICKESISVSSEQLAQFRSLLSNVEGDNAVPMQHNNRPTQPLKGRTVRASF

| Compound | IC50 [1] | IC50 (CDK2/CycE) | IC50 [2] | IC50 [3] | IC50 [4] | IC50 [5] | IC50 (CDK9/CycT1) | IC50 [6] | Thermodynamic solubility in water at pH 6.5 [7] | IC50 ([5]; Homo sapiens, HeLa) | solubility thermodynamic at 24 h [7] | IC50 [8] | IC50 [9] |
| --- | --- | --- | --- | --- | --- | --- | --- | --- | --- | --- | --- | --- | --- |
| CNC(=O)N=S(C)(=O)Cc1cccc(Nc2ncnc(-c3ccc(F)cc3OC)n2)c1 (single isomer, unassigned; (+)) [Example 17, (+)-1-[(3-{[4-(4-Fluoro-2-methoxyphenyl)-1,3,5-triazin-2-yl]amino}benzyl)(methyl)oxido-λ^6-sulfanylidene]-3-methylurea] | 410 nM | 1200 nM | 580 nM | 800 nM | 540 nM | 580 nM | 14 nM | 600 nM | 429 mg/l | – | – | – | – |
| C#CCOc1cc(F)ccc1-c1ncnc(Nc2cccc(CS(C)(=N)=O)c2)n1 (racemic) [Example 77, (rac)-4-[4-Fluoro-2-(prop-2-yn-1-yloxy)phenyl]-N-{3-[(S-methylsulfonimidoyl)methyl]phenyl}-1,3,5-triazin-2-amine] | 520 nM | 1600 nM | 480 nM | 300 nM | 560 nM | – | 15 nM | 630 nM | – | 470 nM | 256 µg/mL (≈ 622 µM) | – | – |
| CC#CCOc1cc(F)ccc1-c1ncnc(Nc2cccc(CS(C)(=N)=O)c2)n1 (racemic) [Example 73, (rac)-4-[2-(But-2-yn-1-yloxy)-4-fluorophenyl]-N-{3-[(S-methylsulfonimidoyl)methyl]phenyl}-1,3,5-triazin-2-amine] | 150 nM | 820 nM | 200 nM | 300 nM | 260 nM | – | 8 nM | 280 nM | – | 240 nM | 1220 µg/mL (≈ 2870 µM) | – | – |

Further lines, results first:

| IC50 [1] | IC50 (CDK2/CycE) | IC50 [2] | IC50 [3] | IC50 [4] | IC50 [5] | IC50 (CDK9/CycT1) | IC50 [6] | Thermodynamic solubility in water at pH 6.5 [7] | IC50 ([5]; Homo sapiens, HeLa) | solubility thermodynamic at 24 h [7] | IC50 [8] | IC50 [9] | Compound |
| --- | --- | --- | --- | --- | --- | --- | --- | --- | --- | --- | --- | --- | --- |
| 250 nM | 430 nM | 140 nM | 350 nM | 310 nM | – | 7 nM | 190 nM | 126 mg/l | 260 nM | – | – | – | COc1cc(F)ccc1-c1ncnc(Nc2cccc(CS(C)(=O)=NC#N)c2)n1 (single isomer, unassigned) [Example 50, [(3-{[4-(4-fluoro-2-methoxyphenyl)-1,3,5-triazin-2-yl]amino}benzyl)(methyl)oxido-λ^6-sulfanylidene]cyanamide] |
| – | – | – | – | – | – | – | – | – | – | 601 µg/mL (≈ 1550 µM) | > 10000 nM | > 10000 nM | COc1cc(F)ccc1-c1ncnc(Nc2cccc(CS(C)(=N)=O)c2)n1 (single isomer, unassigned; (-)) [Example 3, (−)-4-(4-Fluoro-2-methoxyphenyl)-N-{3-[(S-methylsulfonimidoyl)methyl]phenyl}-1,3,5-triazin-2-amine] |
| – | – | – | – | – | – | – | – | – | – | – | > 10000 nM | > 10000 nM | COc1cc(F)ccc1-c1ncnc(Nc2cccc(CS(C)(=N)=O)c2)n1 (single isomer, unassigned; (+)) [Example 4, (+)-4-(4-Fluoro-2-methoxyphenyl)-N-{3-[(S-methylsulfonimidoyl)methyl]phenyl}-1,3,5-triazin-2-amine] |
